In ChEMBL document CHEMBL1795213, “Design, synthesis and biological activity of novel peptidyl benzyl ketone FVIIa inhibitors” (Bioorg Med Chem Lett, 2011):
Converted amounts (≈) assume the structure as drawn.

Assays:
Prothrombin [1] = target: T1, Prothrombin (Homo sapiens, UniProt P00734); assay: Inhibition of thrombin using S-2288 as substrate after 15 mins by competitive binding assay
Coagulation factor X [2] = target: T2, Coagulation factor X (Homo sapiens, UniProt P00742); assay: Inhibition of F10a using S-2288 as substrate after 15 mins by competitive binding assay
Coagulation factor VII [3] = target: T3, Coagulation factor VII (Homo sapiens, UniProt P08709); assay: Inhibition of recombinant F7a using S-2288 as substrate after 15 mins by competitive binding assay
T3 sequence (P08709 whole entry): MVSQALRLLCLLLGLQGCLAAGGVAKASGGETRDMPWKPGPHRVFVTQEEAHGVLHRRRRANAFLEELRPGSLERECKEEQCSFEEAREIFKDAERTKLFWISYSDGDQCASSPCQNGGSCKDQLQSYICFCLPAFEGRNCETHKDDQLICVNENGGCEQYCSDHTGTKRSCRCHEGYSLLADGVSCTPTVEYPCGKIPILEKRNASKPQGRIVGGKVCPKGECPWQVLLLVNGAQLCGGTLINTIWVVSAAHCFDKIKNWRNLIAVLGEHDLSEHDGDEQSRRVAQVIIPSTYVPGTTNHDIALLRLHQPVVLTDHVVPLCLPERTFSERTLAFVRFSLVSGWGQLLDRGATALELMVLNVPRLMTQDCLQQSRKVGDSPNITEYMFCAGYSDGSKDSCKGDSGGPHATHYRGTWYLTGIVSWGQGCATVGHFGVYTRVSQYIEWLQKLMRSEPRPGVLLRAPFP

[4] = Solubility of the compound in buffer; type: physicochemical
Coagulation factor VII [5] = target: T3, Coagulation factor VII; assay: Inhibition of recombinant F7a using S-2288 as substrate after 15 mins by linear fitting analysis
[6] = target: T4, Coagulation factor VII (Homo sapiens) (UniProt P08709); assay: Inhibition of recombinant F7a using S-2288 as substrate after 15 mins by competitive binding assay relative to control
T4 sequence (whole entry): T3 sequence (P08709 whole entry)

Coagulation factor X [7] = target: T2, Coagulation factor X; assay: Inhibition of F10a using S-2288 as substrate after 15 mins by competitive binding assay relative to control
Prothrombin [8] = target: T1, Prothrombin; assay: Inhibition of thrombin using S-2288 as substrate after 15 mins by competitive binding assay relative to control

Structure (SMILES)	IC50 (Coagulation factor VII [3]) [µM]	solubility [4] [µM]	further results
C[C@@H](O)[C@H](NC(=O)[C@@H](N)Cc1ccc(O)cc1)C(=O)N[C@@H](CCCCN=C(N)N)C(=O)Cc1ccccc1			IC50 (Prothrombin [1]): > 1340 µM; IC50 (Coagulation factor X [2]): > 1340 µM
CC(=O)N[C@@H](Cc1ccc(O)cc1)C(=O)N[C@H](C(=O)N[C@@H](CCCNC(=N)N)C(=O)Cc1ccccc1)[C@@H](C)O	> 1340	400 (≈ 222 µg/mL)	
CC(=O)N[C@@H](Cc1ccccc1)C(=O)N[C@@H](Cc1ccccc1)C(=O)N[C@@H](CCCCNC(=N)NS(=O)(=O)c1c(C)c(C)c2c(c1C)CCC(C)(C)O2)C(=O)Cc1ccccc1		400 (≈ 346 µg/mL)	
N=C(N)NCCC[C@H](NC(=O)[C@H](Cc1ccccc1)NC(=O)[C@@H](Cc1ccccc1)NC(=O)OCc1ccccc1)C(=O)Cc1ccccc1	16	400 (≈ 271 µg/mL)	Ki (Coagulation factor VII [5]): 8 µM
CC(C)C[C@H](NC(=O)[C@H](Cc1ccccc1)NS(=O)(=O)Cc1ccccc1)C(=O)N[C@@H](CCCNC(=N)N)C(=O)Cc1ccccc1	> 580	400 (≈ 265 µg/mL)	
N=C(N)NCCC[C@H](NC(=O)[C@H](Cc1ccccc1)NC(=O)[C@H](Cc1ccccc1)NC(=O)OCc1ccccc1)C(=O)Cc1ccccc1	109	400 (≈ 271 µg/mL)	Ki (Coagulation factor VII [5]): 89 µM
CC(=O)N[C@@H](Cc1ccccc1)C(=O)N[C@@H](Cc1ccccc1)C(=O)N[C@@H](CCCNC(=N)N)C(=O)Cc1ccccc1	> 400	400 (≈ 234 µg/mL)	
Cc1c(C)c(S(=O)(=O)NC(=N)NCCCC[C@H](NC(=O)[C@H](Cc2ccccc2)NC(=O)[C@@H](Cc2ccccc2)NC(=O)OC(C)(C)C)C(=O)Cc2ccccc2)c(C)c2c1OC(C)(C)CC2		400 (≈ 369 µg/mL)	
Cc1c(C)c(S(=O)(=O)NC(=N)NCCC[C@H](NC(=O)[C@@H](NC(=O)OC(C)(C)C)[C@@H](C)OCc2ccccc2)C(=O)Cc2ccccc2)c(C)c2c1OC(C)(C)CC2		400 (≈ 322 µg/mL)	
C[C@@H](O)[C@H](NC(=O)[C@@H](N)Cc1ccc(O)cc1)C(=O)N[C@@H](CCCCNC(=N)N)C(=O)Cc1ccccc1			inhibition [6]: 18.9%; inhibition (Coagulation factor X [7]): 30.4%; inhibition (Prothrombin [8]): 5.5%
C[C@@H](O)[C@H](NC(=O)[C@@H](N)Cc1ccc(O)cc1)C(=O)N[C@@H](CCCNC(=N)N)C(=O)Cc1ccccc1	> 1340	400 (≈ 205 µg/mL)	
Cc1c(C)c(S(=O)(=O)NC(=N)NCCCC[C@H](NC(=O)[C@H](Cc2ccccc2)NC(=O)[C@H](Cc2ccccc2)NC(=O)OC(C)(C)C)C(=O)Cc2ccccc2)c(C)c2c1OC(C)(C)CC2		400 (≈ 369 µg/mL)	
Cc1c(C)c(S(=O)(=O)NC(=N)NCCCC[C@H](NC(=O)[C@H](CC(C)C)NC(=O)[C@H](Cc2ccccc2)NC(=O)OC(C)(C)C)C(=O)Cc2ccccc2)c(C)c2c1OC(C)(C)CC2		400 (≈ 356 µg/mL)	
Cc1c(C)c(S(=O)(=O)NC(=N)NCCCC[C@H](NC(=O)[C@@H](NC(=O)[C@H](Cc2ccc(OCc3ccccc3)cc2)NS(=O)(=O)Cc2ccccc2)[C@@H](C)OCc2ccccc2)C(=O)Cc2ccccc2)c(C)c2c1OC(C)(C)CC2		400 (≈ 451 µg/mL)	
Cc1c(C)c(S(=O)(=O)NC(=N)NCCC[C@H](NC(=O)[C@H](Cc2ccccc2)NC(=O)OC(C)(C)C)C(=O)Cc2ccccc2)c(C)c2c1OC(C)(C)CC2		400 (≈ 305 µg/mL)	
Cc1c(C)c(S(=O)(=O)NC(=N)NCCCC[C@H](NC(=O)[C@H](Cc2ccccc2)NC(=O)[C@H](Cc2ccccc2)NC(=O)OCc2ccccc2)C(=O)Cc2ccccc2)c(C)c2c1OC(C)(C)CC2		400 (≈ 383 µg/mL)	
Cc1c(C)c(S(=O)(=O)NC(=N)NCCCC[C@H](NC(=O)[C@H](Cc2ccccc2)NC(=O)[C@@H](Cc2ccccc2)NC(=O)OCc2ccccc2)C(=O)Cc2ccccc2)c(C)c2c1OC(C)(C)CC2		400 (≈ 383 µg/mL)	
Cc1c(C)c(S(=O)(=O)NC(=N)NCCC[C@H](NC(=O)[C@H](CC(C)C)NC(=O)OC(C)(C)C)C(=O)Cc2ccccc2)c(C)c2c1OC(C)(C)CC2		400 (≈ 291 µg/mL)	
N=C(N)NCCC[C@H](NC(=O)[C@H](Cc1ccccc1)NC(=O)[C@@H](Cc1ccccc1)NS(=O)(=O)Cc1ccccc1)C(=O)Cc1ccccc1	640	400 (≈ 279 µg/mL)	
CC(=O)N[C@@H](Cc1ccc(OCc2ccccc2)cc1)C(=O)N[C@H](C(=O)N[C@@H](CCCCNC(=N)NS(=O)(=O)c1c(C)c(C)c2c(c1C)CCC(C)(C)O2)C(=O)Cc1ccccc1)[C@@H](C)OCc1ccccc1		400 (≈ 406 µg/mL)	
N=C(N)NCCC[C@H](NC(=O)[C@H](Cc1ccccc1)NC(=O)[C@H](Cc1ccccc1)NS(=O)(=O)Cc1ccccc1)C(=O)Cc1ccccc1	26	400 (≈ 279 µg/mL)	Ki (Coagulation factor VII [5]): 43 µM
N=C(N)NCCC[C@H](NC(=O)[C@H](Cc1ccccc1)NC(=O)[C@@H](N)Cc1ccccc1)C(=O)Cc1ccccc1	> 1480	400 (≈ 217 µg/mL)	
Cc1c(C)c(S(=O)(=O)NC(=N)NCCCC[C@H](NC(=O)[C@H](CC(C)C)NC(=O)[C@H](Cc2ccc(OCc3ccccc3)cc2)NS(=O)(=O)Cc2ccccc2)C(=O)Cc2ccccc2)c(C)c2c1OC(C)(C)CC2		400 (≈ 420 µg/mL)	
Cc1c(C)c(S(=O)(=O)NC(=N)NCCCC[C@H](NC(=O)[C@H](CC(C)C)NC(=O)[C@H](Cc2ccc(OCc3ccccc3)cc2)NC(=O)OC(C)(C)C)C(=O)Cc2ccccc2)c(C)c2c1OC(C)(C)CC2		400 (≈ 398 µg/mL)	
